Data published in patent EP0178503A1, “Butenyl derivatives, process for their preparation and medicines containing them” (LUDWIG HEUMANN & CO GMBH, priority 1984, dated 1986).

Target: T1, Histamin-H2-Rezeptoren (Cavia porcellus, UniProt P47747)
T1 construct: Kontraktionsfrequenz des isolierten rechten Atriums des Meerschweinchens; from tissue; host or cells: isolated guinea pig (right) atrium
Test: pA2 determination in vitro on guinea pig atrium (method of Ariens)
Type: biochemical, Meerschweinchen
Conditions: Meerschweinchenvorhof, H2-antagonistic activity, Molec. Pharmac., Band 1 (1964)
Source text: Die pharmakologische Aktivität dieser Verbindungen kann nach einer modifizierten Methode gemäß der DE OS 2734070 beim perfundierten Rattenmagen gezeigt werden oder durch die Ermittlung der pA2-Werte in vitro am Meerschweinchenvorhof (vergleiche Ariens, Molec. Pharmac., Band 1, Academic Press, New York, 1964) nachgewiesen werden.

T1 sequence (P47747 whole entry): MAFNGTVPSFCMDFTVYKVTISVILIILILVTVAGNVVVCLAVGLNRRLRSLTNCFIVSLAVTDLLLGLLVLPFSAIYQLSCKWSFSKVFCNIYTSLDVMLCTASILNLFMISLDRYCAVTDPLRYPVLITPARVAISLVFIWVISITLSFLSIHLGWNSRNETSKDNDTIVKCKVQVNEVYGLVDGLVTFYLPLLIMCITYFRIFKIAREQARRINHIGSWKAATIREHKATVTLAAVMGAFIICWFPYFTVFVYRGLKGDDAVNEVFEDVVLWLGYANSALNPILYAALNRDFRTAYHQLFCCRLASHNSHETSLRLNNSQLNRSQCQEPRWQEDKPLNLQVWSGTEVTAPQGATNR

`CNC(=C[N+](=O)[O-])NCC=CCOc1cccc(CN2CCCCC2)c1` [Beispiel 4, 1-Methylamino-1-[4-[3-(piperidinomethyl)phenoxy]but-2-enyl] amino-2-nitro-ethylen] gave a Kb of 31.6 nM.
